Assay results as given in patent publication US20240189331A1, “NOVEL […] FILM FORMULATION” (INTELGENX CORP., priority 2021, published 2024).
Entries after “also recorded” stand apart in the source; their conditions may differ.

How the values were obtained:
[1] = In vitro permeability study in 6 station Franz diffusion cell apparatus using porcine buccal mucosa; conditions: for effect of acidifying agent in film formulation on permeation of psilocybin through pig mucosa membrane: psilocybin around its isoelectric point (pH=3.9)
[2] = cited from earlier work
[3] = administered orally; cited from earlier work

For `O=C(O)CC(O)(CC(=O)O)C(=O)O` [citric acid], the “effect of acidifying agent in film formulation on permeation of psilocybin through pig mucosa membrane” value [1] was “triggers permeation”.

In the case of “Benzalkonium chloride [Benzalkonium chloride (BKC)]”, the “effect of penetration enhancer on psilocybin diffusion through porcine buccal mucosa” value ([1]; penetration enhancer in psilocybin film formulation, FIG. 4 and FIG. 5) is reported as “improved buccal permeation; also recorded: significate increase”.

For `CN(C)CCc1c[nH]c2cccc(OP(=O)(O)O)c12` [psilocybin, [3-(2-Dimethylaminoethyl)-1H-indol-4-yl]dihydrogen phosphate], the pka1 ([2]; first phosphate oxygen) is listed as 1.3, the pka2 ([2]; second phosphate oxygen) is listed as 6.5 and the pka3 ([2]; tertiary amine group) is listed as 10.4. For the same compound, the “drug absorbed into the bloodstream” value [3] was “about 50%” and the “time of maximum plasma concentration” value [3] was “approximately 80 minutes”.

For `O=P(O)(O)O` [phosphoric acid], the “effect of acidifying agent in film formulation on permeation of psilocybin through pig mucosa membrane” value [1] was “triggers permeation”.
